From patent publication US20130102595A1 (Curis, Inc., priority 2011, published 2013)

Key:
[1] = system: HDACs (HeLa cell nuclear extracts); assay: HDAC enzymatic activity, Biomol Color de Lys system; type: biochemical; details: 1 hour, 25° C.
Experimental: (E) an In Vitro Assay which Determines the Ability of a Test Compound to Inhibit HDAC Enzymatic Activity.
HDAC inhibitory activity was assessed using the Biomol Color de Lys system (AK-500, Biomol, Plymouth Meeting, Pa.). Briefly, HeLa cell nuclear extracts were used as a source of HDACs. Different concentrations of test compounds were serially diluted in dimethylsulphoxide (DMSO) and added to HeLa cell nuclear extracts in the presence of a colorimetric artificial substrate. Final assay condition contained 50 mM Tris/Cl, pH 8.0, 137 mM NaCl, 2.7 mM KCl and 1 mM MgCl2. Reactions were carried in room temperature (25° C.) for 1 hour before addition of developer for termination. Relative enzyme activity was measured in the WALLAC Victor II 1420 microplate reader as fluorescence intensity (excitation: 350-380 nm; emission: 440-460 nm). Data were analyzed using GraphPad Prism (v4.0a) with a sigmoidal dose response curve fitting for IC50 calculation.

PI3Kα (p110α/p85α) = biological target: T1, PI3Kα (p110α/p85α) (Homo sapiens, UniProt P42336); assay: PI3Kα ADP-Glo assay; type: biochemical; details: 20 μM PIP2, 10 μM ATP, 30 minutes
T1 construct: GST (N); made in house; host or cells: Baculovirus-infected Sf9 cells
T1 sequence (P42336 whole entry): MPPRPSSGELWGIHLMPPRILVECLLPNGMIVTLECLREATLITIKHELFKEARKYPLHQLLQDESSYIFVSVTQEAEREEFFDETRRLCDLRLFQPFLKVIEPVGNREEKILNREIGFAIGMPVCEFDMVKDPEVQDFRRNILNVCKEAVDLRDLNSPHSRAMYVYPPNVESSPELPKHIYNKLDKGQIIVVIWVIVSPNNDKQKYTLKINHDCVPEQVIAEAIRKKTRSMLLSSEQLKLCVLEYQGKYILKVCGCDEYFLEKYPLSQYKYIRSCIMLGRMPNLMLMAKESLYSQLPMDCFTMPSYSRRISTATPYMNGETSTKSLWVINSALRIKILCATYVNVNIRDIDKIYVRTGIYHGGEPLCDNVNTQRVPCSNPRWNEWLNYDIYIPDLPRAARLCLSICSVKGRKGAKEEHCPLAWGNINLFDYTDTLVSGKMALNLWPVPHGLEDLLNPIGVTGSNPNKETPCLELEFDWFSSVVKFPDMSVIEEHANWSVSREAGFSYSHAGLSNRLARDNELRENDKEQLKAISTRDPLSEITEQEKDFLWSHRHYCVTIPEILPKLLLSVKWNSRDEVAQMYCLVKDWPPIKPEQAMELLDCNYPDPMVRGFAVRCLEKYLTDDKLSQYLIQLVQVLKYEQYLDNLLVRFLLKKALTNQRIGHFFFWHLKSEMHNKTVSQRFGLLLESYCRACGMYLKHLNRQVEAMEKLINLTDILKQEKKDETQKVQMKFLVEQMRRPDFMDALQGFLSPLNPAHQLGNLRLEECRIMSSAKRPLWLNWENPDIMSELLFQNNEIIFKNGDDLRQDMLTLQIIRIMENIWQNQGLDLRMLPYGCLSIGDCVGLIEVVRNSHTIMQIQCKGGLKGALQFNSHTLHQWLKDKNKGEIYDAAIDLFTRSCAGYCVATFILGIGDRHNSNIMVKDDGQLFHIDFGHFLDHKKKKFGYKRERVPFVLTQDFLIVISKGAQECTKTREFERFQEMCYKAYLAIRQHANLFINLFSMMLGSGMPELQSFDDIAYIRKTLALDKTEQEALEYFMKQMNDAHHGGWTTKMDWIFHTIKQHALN
T1 sequence (P27986 whole entry partner): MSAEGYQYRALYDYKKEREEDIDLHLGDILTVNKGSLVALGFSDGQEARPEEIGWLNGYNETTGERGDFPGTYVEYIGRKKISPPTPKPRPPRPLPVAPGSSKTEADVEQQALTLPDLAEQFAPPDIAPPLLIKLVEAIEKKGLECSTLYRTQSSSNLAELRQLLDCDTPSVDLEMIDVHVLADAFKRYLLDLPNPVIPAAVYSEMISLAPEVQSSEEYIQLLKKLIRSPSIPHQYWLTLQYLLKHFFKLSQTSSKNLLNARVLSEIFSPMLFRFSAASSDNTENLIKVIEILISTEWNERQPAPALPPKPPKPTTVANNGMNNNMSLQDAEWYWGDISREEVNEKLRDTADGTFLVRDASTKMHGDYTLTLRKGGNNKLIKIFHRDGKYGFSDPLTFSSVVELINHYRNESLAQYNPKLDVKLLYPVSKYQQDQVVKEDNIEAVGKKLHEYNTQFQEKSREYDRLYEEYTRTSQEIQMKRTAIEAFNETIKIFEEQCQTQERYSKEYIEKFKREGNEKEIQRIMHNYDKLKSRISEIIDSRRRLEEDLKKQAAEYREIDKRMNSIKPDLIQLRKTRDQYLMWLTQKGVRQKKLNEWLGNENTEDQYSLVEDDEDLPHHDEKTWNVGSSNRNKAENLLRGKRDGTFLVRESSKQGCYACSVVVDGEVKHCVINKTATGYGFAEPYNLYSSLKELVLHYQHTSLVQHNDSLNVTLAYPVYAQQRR
Experimental: (A) an In Vitro Assay which Determines the Ability of a Test Compound to Inhibit PI3Kα.
Activity of PI3Kα was measured using ADP-Glo assay from Promega. PI3Kα, a complex of N-terminal GST-tagged recombinant full-length human p110α (GenBank, Accession No. U79143) and N-terminal His tagged recombinant full length human p85a (GenBank Accession No. XM—043865) were co-expressed in a Baculovirus infected Sf9 cell expression system. The ADP-Glo assay was performed to measure the amount of ADP generated from ATP hydrolysis coupled with PIP2 phosphorylation by the purified recombinant PI3Kα (p110α/p85α). PI3Kα was incubated with 20 μM PIP2 substrate in the reaction buffer (50 mM HEPES, pH 7.4, 150 mM NaCl, 5 mM MgCl2, 1 mM DTT, 3 uM Naorthovanadate, 10 μM ATP and 0.5% DMSO) for 30 minutes at room temperature. The ADP generated was then detected by ADP-Glo assay from Promega, a luminescent ADP detection assay. The ADP-Glo assay is performed in two steps; first, after the kinase reaction, ADP-Glo Reagent is added to terminate the kinase reaction and deplete the remaining ATP. Second, the Kinase Detection Reagent is added to simultaneously convert ADP to ATP and allow the newly synthesized ATP to be measured using a luciferase/luciferin reaction.

| Compound | IC50 [1] [µM] | IC50 (PI3Kα (p110α/p85α)) [µM] |
| --- | --- | --- |
| CN(Cc1cc2nc(-c3cccc4[nH]ncc34)nc(N3CCOCC3)c2s1)c1ncc(/C=C/C(=O)NO)cn1 [Compound 75] | 0.1 to 1 | < 0.1 |
| CN(Cc1cc2nc(-c3cccc4[nH]ncc34)nc(N3CCOCC3)c2s1)c1ccc(C(=O)NO)cc1 [Compound 79] | < 0.1 | < 0.1 |
| O=C(O)CN(Cc1cc2nc(-c3cccc4[nH]ncc34)nc(N3CCOCC3)c2s1)c1ncc(C(=O)NO)cn1 [Compound 88] | 0.1 to 1 | < 0.1 |
| COCCN(Cc1cc2nc(-c3cccc4[nH]ncc34)nc(N3CCOCC3)c2s1)c1ncc(C(=O)NO)cn1 [Compound 90, 2-(((2-(1H-indazol-4-yl)-4-morpholinothieno[3,2-d]pyrimidin-6-yl)methyl)(2-methoxyethyl)amino)-N-hydroxypyrimidine-5-carboxamide] | < 0.1 | < 0.1 |
| O=C(NO)c1cnc(N(CCCO)Cc2cc3nc(-c4cccc5[nH]ncc45)nc(N4CCOCC4)c3s2)nc1 [Compound 91] | < 0.1 | < 0.1 |
| CCN(Cc1cc2nc(-c3cccc4[nH]ncc34)nc(N3CCOCC3)c2s1)c1ncc(C(=O)NO)cn1 [Compound 92] | < 0.1 | < 0.1 |
| NCCN(Cc1cc2nc(-c3cccc4[nH]ncc34)nc(N3CCOCC3)c2s1)c1ncc(C(=O)NO)cn1 [Compound 94] | < 0.1 | < 0.1 |
| CN(C)CCN(Cc1cc2nc(-c3cccc4[nH]ncc34)nc(N3CCOCC3)c2s1)c1ncc(C(=O)NO)cn1 [Compound 95] | 0.1 to 1 | < 0.1 |
| CC(=O)NCCN(Cc1cc2nc(-c3cccc4[nH]ncc34)nc(N3CCOCC3)c2s1)c1ncc(C(=O)NO)cn1 [Compound 96] | < 0.1 | < 0.1 |
| NC(=O)CN(Cc1cc2nc(-c3cccc4[nH]ncc34)nc(N3CCOCC3)c2s1)c1ncc(C(=O)NO)cn1 [Compound 97] | < 0.1 | < 0.1 |
| C#CCCN(Cc1cc2nc(-c3cccc4[nH]ncc34)nc(N3CCOCC3)c2s1)c1ncc(C(=O)NO)cn1 [Compound 98] | < 0.1 | < 0.1 |
| O=C(NO)c1ccc2c(ccn2Cc2cc3nc(-c4cccc5[nH]ncc45)nc(N4CCOCC4)c3s2)c1 [Compound 105] | 0.1 to 1 | > 10 |
| Cn1cc(CNc2cc3nc(-c4cccc5[nH]ncc45)nc(N4CCOCC4)c3s2)c2cc(C(=O)NO)ccc21 [Compound 106] | 1 to 10 | < 0.1 |
| CN(Cc1cc2nc(-c3cnc(C(N)=O)nc3)nc(N3CCOCC3)c2s1)c1ncc(C(=O)NO)cn1 [Compound 122] | < 0.1 | < 0.1 |
| CCN(CC)c1nc(-c2cccc3[nH]ncc23)nc2cc(CN(C)c3ncc(C(=O)NO)cn3)sc12 [Compound 158] | < 0.1 | > 10 |
| CN(C)c1nc(-c2cccc3[nH]ncc23)nc2cc(CN(C)c3ncc(C(=O)NO)cn3)sc12 [Compound 159] | < 0.1 | 1 to 10 |
| COCCNc1nc(-c2cccc3[nH]ncc23)nc2cc(CN(C)c3ncc(C(=O)NO)cn3)sc12 [Compound 160] | < 0.1 | > 10 |
| CN(Cc1cc2nc(-c3cccc4[nH]ncc34)nc(NCCO)c2s1)c1ncc(C(=O)NO)cn1 [Compound 161] | < 0.1 | 0.1 to 1 |
| CN(Cc1cc2nc(-c3cccc4[nH]ncc34)nc(N(CCO)CCO)c2s1)c1ncc(C(=O)NO)cn1 [Compound 162] | < 0.1 | 1 to 10 |
| COCCN(CCOC)c1nc(-c2cccc3[nH]ncc23)nc2cc(CN(C)c3ncc(C(=O)NO)cn3)sc12 [Compound 163] | < 0.1 | 0.1 to 1 |
| CN(Cc1cc2nc(-c3ccc4c(c3)OCCN4)nc(N3CCOCC3)c2s1)c1ncc(C(=O)NO)cn1 [Compound 191] | < 0.1 | – |
| CC(c1cc2nc(-c3ccc(N)cc3)nc(N3CCOCC3)c2s1)N(C)c1ncc(C(=O)NO)cn1 (centres unmarked) [Compound 214] | < 0.1 | – |
| CN(c1ncc(C(=O)NO)cn1)C(C)(C)c1cc2nc(-c3ccc(N)cc3)nc(N3CCOCC3)c2s1 [Compound 270] | < 0.1 | – |
| CN(Cc1cc2nc(-c3cccc4[nH]c(=O)[nH]c34)nc(N3CCOCC3)c2s1)c1ncc(C(=O)NO)cn1 [Compound 316] | – | < 0.1 |
